In patent US20210038579A1, “Treatment Of Patients With Classic Fabry Disease” (Amicus Therapeutics, Inc., priority 2018, published 2021):

Experiments:
[1] = human, in vivo
Experimental: Study Design. Following eligibility-baseline assessments (2 months), patients were randomized to Stage 1—6 months of double-blind administration of 150 mg migalastat hydrochloride or placebo every other day. All patients completing Stage 1 were eligible to receive open-label migalastat in Stage 2 (months 6-12) and for an additional year (months 13-24) thereafter. […] Study completers were eligible to enroll in the open-label extension study for up to 5 years.
Safety Analysis and Adverse Events. Randomized patients receiving ≤1 dose were included in the safety analysis, which comprised vital signs, physical exams, electrocardiograms, clinical labs, and adverse events.

[2] = molecular target: T1, α-Gal A mutant form p.Leu300Pro (c.899 T > C) (Homo sapiens, UniProt P06280, L300P); experiment: HEK assay: α-Gal A activity in HEK-293 cell lysate with migalastat; assay type: cell-based
T1 construct: expressed in transfected cells; host or cells: HEK-293
T1 sequence (P06280 32-429 L300P): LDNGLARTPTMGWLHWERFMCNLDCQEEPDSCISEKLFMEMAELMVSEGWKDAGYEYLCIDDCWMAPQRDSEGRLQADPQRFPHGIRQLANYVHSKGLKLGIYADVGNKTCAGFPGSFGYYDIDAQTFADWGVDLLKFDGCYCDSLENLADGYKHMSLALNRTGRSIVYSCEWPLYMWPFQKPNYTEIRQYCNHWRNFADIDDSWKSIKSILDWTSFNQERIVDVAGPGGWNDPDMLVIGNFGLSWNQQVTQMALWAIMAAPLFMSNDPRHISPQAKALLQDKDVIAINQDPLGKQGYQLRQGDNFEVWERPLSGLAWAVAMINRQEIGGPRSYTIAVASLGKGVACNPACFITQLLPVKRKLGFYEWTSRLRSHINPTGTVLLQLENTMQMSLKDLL
Procedure, shortened: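 Mutant α-Gal A forms from cDNA constructs were transiently expressed in HEK-293 cells, then incubated with or without migalastat (17 nM to 1 mM) for 4 to 5 days. Enzyme levels in cell lysates were measured with the fluorogenic substrate 4-MU-α-Gal or by western blot.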

[3] = +10 μM migalastat, HEK-293 cell lysate, mean ± SEM, n = 20

## OC[C@H]1NC[C@H](O)[C@@H](O)[C@H]1O [migalastat]
[1]
  deaths: No deaths were reported
[2]; 10 μM migalastat
  α-Gal A activity at 10 μM (fold over baseline): 10.35 fold over baseline
[2]; [3]
  +Migalastat α-Gal A activity: 13219 ± 412 nmol/mg/h
  +Migalastat α-Gal A activity % WT: 37.9 ± 1.2 % WT
[2]; HEK293, 10 μM migalastat minus baseline, read-out: Absolute increase at 10 μM (% WT)
  activation at 10 µM: 34.2%
